Drawing on patent US20030220517A1, “Method for producing ketocarboxylic acid derivatives” (priority 2000, published 2003), this text covers melting point and chromatographic logP for eight molecules.

Experiment in the first data set: not given
Conditions: not given
A word on the melting point: it is the temperature, or range, at which the solid turns liquid. `O=C(O)CCC(=O)c1ccc(-c2ccc3c(c2)OC(F)(F)C(F)(F)O3)cc1` [Example 5, 4-oxo-4-(3′,4′-tetrafluoroethylenedioxo-biphenyl-4-yl)butyric acid] registered a melting point of 165 to 168 °C.

A further data set in a line: log P determination by HPLC on reversed-phase column (EEC Directive 79/831 Annex V.A8). The class given is physicochemical. To be noted: reversed-phase C18 HPLC column, reversed-phase column (C 18), 43° C., acidic range pH 2.3, 0.1% aqueous phosphoric acid/acetonitrile gradient. Here is the method: The log P values given in the use examples above are determined in accordance with EEC Directive 79/831 Annex V.A8 by HPLC (High Performance Liquid Chromatography) on a reversed-phase column (C 18). Temperature: 43° C. The determination is carried out in the acidic range at pH 2.3 using the mobile phases 0.1% aqueous phosphoric acid and acetonitrile; linear gradient from 10% acetonitrile to 90% acetonitrile. Calibration is carried out using unbranched alkan-2-ones (with 3 to 16 carbon atoms) with known logP values (determination of the logP values by the retention times using linear interpolation between two successive alkanones).
By chromatographic logP is commonly meant lipophilicity estimated from chromatographic retention. Higher therefore signals higher lipophilicity. `Fc1cccc(F)c1C1=N[C@@H](c2ccc(-c3ccc(OC(F)(F)F)cc3)cc2)CC1` [Example V-1, (2R)-5-(2,6-difluorophenyl)-2-[4′-(trifluoromethoxy)-1,1′-biphenyl-4-yl]-3,4-dihydro-2H-pyrrole] had a chromatographic logP of 4.13.

Molecule `O=C1CCC(c2ccc(-c3ccc(OC(F)(F)F)cc3)cc2)N1` (centres unmarked) [Example X-1, 5-[4′-(trifluoromethoxy)-1,1′-biphenyl-4-yl]-2-pyrrolidinone] gave a chromatographic logP of 2.95.

In turn, `C=C(c1ccccc1)N1C(=O)CCC1c1ccc(-c2ccc(OC(F)(F)F)cc2)cc1` (centres unmarked) [IX-1, 1-(1-phenylvinyl)-5-[4′-(trifluoromethoxy)-1,1′-biphenyl-4-yl]-2-pyrrolidinone] yielded a chromatographic logP of 4.35.

`O=C1CCC(c2ccc(-c3ccc(OC(F)(F)F)cc3)cc2)N1C(CO)c1ccccc1` (centres unmarked) [VII-1, 1-[2-hydroxy-1-phenylethyl]-5-[4′-(trifluoromethoxy)-1,1′-biphenyl-4-yl]-2-pyrrolidinone]: the chromatographic logP was determined as 3.8.

As to `O=C1CCC(c2ccc(-c3ccc(OC(F)(F)F)cc3)cc2)N1C(CCl)c1ccccc1` (centres unmarked) [VIII-1, 1-[2-chloro-1-phenylethyl]-5-[4′-(trifluoromethoxy)-1,1′-biphenyl-4-yl]-2-pyrrolidinone], the chromatographic logP worked out at 4.78.

Molecule `CC(C)(C)OC(=O)N1C(=O)CCC1c1ccc(-c2ccc(OC(F)(F)F)cc2)cc1` (centres unmarked) [XI-1, tert-butyl 2-oxo-5-[4′-(trifluoromethoxy)-1,1′-biphenyl-4-yl]-1-pyrrolidinecarboxylate] returned a chromatographic logP of 4.32.

As for `CC(C)(C)OC(=O)NC(CCC(=O)c1c(F)cccc1F)c1ccc(-c2ccc(OC(F)(F)F)cc2)cc1` (centres unmarked) [XIII-1, tert-butyl 4-(2,6-difluorophenyl)-4-oxo-1-[4′-(trifluoromethoxy)-1,1′-biphenyl-4-yl]butylcarbamate], the chromatographic logP came to 5.18.
